Measurements from patent publication US6737383B1, “Herbicidal oxadiazolidines” (priority 1999, dated 2004).

Assays:
cocklebur = assay: Test B pre/postemergence cocklebur; type: in vivo, Xanthium strumarium
In short: (§1)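 Response is a visual 0-to-10 score relative to untreated plants, where 0 means no effect and 10 means complete control, taken twelve to sixteen days after application. Treatments went onto soil at planting and onto foliage of 1- to 4-leaf plants, using a surfactant-containing non-phytotoxic solvent.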

corn = assay: Test B pre/postemergence corn; type: in vivo, Zea mays
In short: as §1

crabgrass = assay: Test B pre/postemergence crabgrass; type: in vivo, Digitaria sanguinalis
In short: as §1

giant foxtail = assay: Test B pre/postemergence giant foxtail; type: in vivo, Setaria faberii
In short: as §1

morningglory = assay: Test B pre/postemergence morningglory; type: in vivo, Ipomoea hederacea
In short: as §1

pigweed = assay: Test B pre/postemergence pigweed; type: in vivo, Amaranthus retroflexus
In short: as §1

rape = assay: Test B pre/postemergence rape; type: in vivo, Brassica napus
In short: as §1

soybean = assay: Test B pre/postemergence soybean; type: in vivo, Glycine max
In short: as §1

sugar beet = assay: Test B pre/postemergence sugar beet; type: in vivo, Beta vulgaris
In short: as §1

velvetleaf = assay: Test B pre/postemergence velvetleaf; type: in vivo, Abutilon theophrasti
In short: as §1

wheat = assay: Test B pre/postemergence wheat; type: in vivo, Triticum aestivum
In short: as §1

wild oat = assay: Test B pre/postemergence wild oat; type: in vivo, Avena fatua
In short: as §1

purple nutsedge = assay: Test B pre/postemergence purple nutsedge; type: in vivo, Cyperus rotundus
In short: as §1

rice = assay: Test B flood test rice; type: in vivo, Oryza sativa
In short: (§2)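 Each value is a visual injury score relative to controls, with 10 meaning complete control and 0 no effect. Evaluation took place twelve to sixteen days after the 2-leaf-stage plants were treated and kept in the greenhouse.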

smallflower flatsedge = assay: Test B flood test smallflower flatsedge; type: in vivo, Cyperus difformis
In short: as §2

duck salad = assay: Test B flood test duck salad; type: in vivo, Heteranthera limosa
In short: as §2

[1] = Preemergence, Rate 31 g/ha, visual rating, scale 0 to 10 (0 no effect, 10 complete control)
[2] = Preemergence, Rate 62 g/ha, scale of 0 to 10 where 0 is no effect and 10 is complete control
[3] = Preemergence, Rate 250 g/ha, scale of 0 to 10 where 0 is no effect and 10 is complete control
[4] = Rate 31 g/ha, Postemergence, scale 0 to 10
[5] = Rate 62 g/ha, Postemergence, scale 0 to 10, 0 no effect, 10 complete control
[6] = Rate 125 g/ha, Postemergence, scale of 0 to 10 where 0 is no effect and 10 is complete control
[7] = Rate 125 g/ha, Preemergence, scale of 0 to 10 where 0 is no effect and 10 is complete control
[8] = Rate 250 g/ha, Postemergence, scale of 0 to 10 where 0 is no effect and 10 is complete control
[9] = Rate 31 g/ha, Pre-emergence section (flood test species), scale 0 to 10
[10] = Rate 62 g/ha, headed Pre-emergence (flood test species), scale 0 to 10 (0 no effect, 10 complete control)
[11] = Rate 125 g/ha, Pre-emergence, flood test species, scale 0 to 10 where 0 is no effect and 10 is complete control
[12] = Rate 250 g/ha, Pre-emergence, flood-test species, scale 0 to 10, 0 is no effect, 10 is complete control

CC(Cl)=CCn1c(=O)on(C(=O)N(c2ccc(F)cc2)C(C)C)c1=O [Compound 285]
Cocklebur plant response rating (cocklebur; [1]): 0
Cocklebur plant response rating (cocklebur; [2]): 0
Cocklebur plant response rating (cocklebur; [3]): 0
Cocklebur plant response rating (cocklebur; [4]): 0
Cocklebur plant response rating (cocklebur; [5]): 0
Cocklebur plant response rating (cocklebur; [6]): 0
Cocklebur plant response rating (cocklebur; [7]): 0
Plant response rating, Cocklebur (cocklebur; [8]): 0
Corn plant response rating (corn; [1]): 0
Corn plant response rating (corn; [2]): 0
Corn plant response rating (corn; [3]): 0
Corn plant response rating (corn; [4]): 0
Corn plant response rating (corn; [5]): 0
Corn plant response rating (corn; [6]): 0
Corn plant response rating (corn; [7]): 0
Plant response rating, Corn (corn; [8]): 0
Crabgrass plant response rating (crabgrass; [1]): 0
Crabgrass plant response rating (crabgrass; [2]): 4
Crabgrass plant response rating (crabgrass; [3]): 8
Crabgrass plant response rating (crabgrass; [4]): 0
Crabgrass plant response rating (crabgrass; [5]): 0
Crabgrass plant response rating (crabgrass; [6]): 3
Crabgrass plant response rating (crabgrass; [7]): 8
Plant response rating, Crabgrass (crabgrass; [8]): 7
Giant foxtail plant response rating (giant foxtail; [1]): 7
Giant foxtail plant response rating (giant foxtail; [2]): 8
Giant foxtail plant response rating (giant foxtail; [3]): 10
Giant foxtail plant response rating (giant foxtail; [4]): 0
Giant foxtail plant response rating (giant foxtail; [5]): 0
Giant foxtail plant response rating (giant foxtail; [6]): 0
Giant foxtail plant response rating (giant foxtail; [7]): 9
Plant response rating, Giant foxtail (giant foxtail; [8]): 0
Morningglory plant response rating (morningglory; [1]): 0
Morningglory plant response rating (morningglory; [2]): 0
Morningglory plant response rating (morningglory; [3]): 0
Morningglory plant response rating (morningglory; [4]): 1
Morningglory plant response rating (morningglory; [5]): 3
Morningglory plant response rating (morningglory; [6]): 5
Morningglory plant response rating (morningglory; [7]): 0
Plant response rating, Morningglory (morningglory; [8]): 5
Redroot pigweed plant response rating (pigweed; [1]): 0
Redroot pigweed plant response rating (pigweed; [2]): 0
Redroot pigweed plant response rating (pigweed; [3]): 5
Redroot pigweed plant response rating (pigweed; [4]): 0
Redroot pigweed plant response rating (pigweed; [5]): 0
Redroot pigweed plant response rating (pigweed; [6]): 0
Redroot pigweed plant response rating (pigweed; [7]): 2
Plant response rating, Redroot pigweed (pigweed; [8]): 0
Rape plant response rating (rape; [1]): 0
Rape plant response rating (rape; [2]): 0
Rape plant response rating (rape; [3]): 3
Rape plant response rating (rape; [4]): 0
Rape plant response rating (rape; [5]): 0
Rape plant response rating (rape; [6]): 0
Rape plant response rating (rape; [7]): 0
Plant response rating, Rape (rape; [8]): 0
Soybean plant response rating (soybean; [1]): 0
Soybean plant response rating (soybean; [2]): 0
Soybean plant response rating (soybean; [3]): 0
Soybean plant response rating (soybean; [5]): 2
Soybean plant response rating (soybean; [6]): 2
Soybean plant response rating (soybean; [7]): 0
Plant response rating, Soybean (soybean; [8]): 3
Sugarbeets plant response rating (sugar beet; [1]): 0
Sugarbeets plant response rating (sugar beet; [2]): 0
Sugarbeets plant response rating (sugar beet; [3]): 0
Sugarbeets plant response rating (sugar beet; [5]): 0
Sugarbeets plant response rating (sugar beet; [6]): 2
Sugarbeets plant response rating (sugar beet; [7]): 0
Plant response rating, Sugarbeets (sugar beet; [8]): 3
Velvetleaf plant response rating (velvetleaf; [1]): 0
Velvetleaf plant response rating (velvetleaf; [2]): 0
Velvetleaf plant response rating (velvetleaf; [3]): 3
Velvetleaf plant response rating (velvetleaf; [5]): 0
Velvetleaf plant response rating (velvetleaf; [6]): 0
Velvetleaf plant response rating (velvetleaf; [7]): 2
Plant response rating, Velvetleaf (velvetleaf; [8]): 1
Wheat plant response rating (wheat; [1]): 0
Wheat plant response rating (wheat; [2]): 0
Wheat plant response rating (wheat; [3]): 0
Wheat plant response rating (wheat; [5]): 0
Wheat plant response rating (wheat; [6]): 0
Wheat plant response rating (wheat; [7]): 0
Plant response rating, Wheat (wheat; [8]): 0
Wild oats plant response rating (wild oat; [1]): 0
Wild oats plant response rating (wild oat; [2]): 0
Wild oats plant response rating (wild oat; [3]): 3
Wild oats plant response rating (wild oat; [5]): 0
Wild oats plant response rating (wild oat; [6]): 0
Plant response rating, Wild oats (wild oat; [8]): 0
Nutsedge plant response rating (purple nutsedge; [1]): 0
Nutsedge plant response rating (purple nutsedge; [2]): 0
Nutsedge plant response rating (purple nutsedge; [3]): 0
Nutsedge plant response rating (purple nutsedge; [4]): 0
Nutsedge plant response rating (purple nutsedge; [5]): 0
Nutsedge plant response rating (purple nutsedge; [6]): 0
Nutsedge plant response rating (purple nutsedge; [7]): 0
Plant response rating, Nutsedge (purple nutsedge; [8]): 0
Rice plant response rating (rice; [9]): 0
Rice plant response rating (rice; [10]): 0
Rice plant response rating (rice; [11]): 0
Rice plant response rating (rice; [12]): 0
S. Flatsedge plant response rating (smallflower flatsedge; [9]): 0
S. Flatsedge plant response rating (smallflower flatsedge; [10]): 0
S. Flatsedge plant response rating (smallflower flatsedge; [11]): 0
S. Flatsedge plant response rating (smallflower flatsedge; [12]): 0
Ducksalad plant response rating (duck salad; [9]): 0
Ducksalad plant response rating (duck salad; [10]): 0
Ducksalad plant response rating (duck salad; [11]): 0
Ducksalad plant response rating (duck salad; [12]): 0
